≈ marks a conversion by molar mass, not a printed value.
Columns and labels:
Apis mellifera = conditions: acute; duration: 48 hours; dermal; mortality
Daphnia magna = conditions: chronic/long-term; duration: 21 days; reproduction
Rattus norvegicus = conditions: for NOAEL: reproduction developmental
Anas platyrhynchos = conditions: for LD50: oral, mortality
Canidae = conditions: chronic; duration: 1 years; oral; Dog Other; organ weight
Colinus virginianus = conditions: acute, oral, mortality

Question: `COc1cc(OC)nc(NC(=O)NS(=O)(=O)c2c(-c3nnn(C)n3)cnn2C)n1` [Azimsulfuron] was tested. Which LC50 (Tagia sp.; acute, duration: 14 days, mortality) did it give?
Answer: > 1000 mg/kg

Question: And the NOEC (Tagia sp.; chronic/long-term, duration: 56 days, reproduction)?
Answer: 12.5 mg/kg

Question: What about the LD50 (Apis mellifera) of the same compound?
Answer: > 25 µg/piece

Question: And the NOEC (Daphnia magna)?
Answer: 5.4 mg/L

Question: What about the LD50 (Rattus norvegicus; acute, oral, mortality) of the same compound?
Answer: > 5000 mg/kg-day

Question: What about the NOAEL (Rattus norvegicus; organ weight) of the same compound?
Answer: 9.6 mg/kg-day

Question: And the NOAEL (Rattus norvegicus; reproduction)?
Answer: 76.6 mg/kg-day

Question: What about the LD50 (Anas platyrhynchos; acute, unspecified) of the same compound?
Answer: > 2250 mg/kg-day

Question: What about the NOEL (Anas platyrhynchos; reproductive) of the same compound?
Answer: 172 mg/kg-day

Question: What about the LD50 (Anas platyrhynchos; short-term, feed) of the same compound?
Answer: > 2040 mg/kg-day

Question: And the LC50 (Oncorhynchus mykiss; acute, duration: 96 hours, mortality)?
Answer: 154 µg/mL (≈ 363 µM)

Question: And the NOEC (Oncorhynchus mykiss; chronic/long-term, duration: 90 days, time to hatch)?
Answer: 6.3 mg/L

Question: And the NOAEL (Canidae)?
Answer: 17.9 mg/kg-day

Question: And the LD50 (Colinus virginianus; diet)?
Answer: > 3150 mg/kg-day

Question: What about the LD50 (Colinus virginianus) of the same compound?
Answer: > 2250 mg/kg-day
